Test results taken from US12280065B2, “Pharmaceutical compounds and therapeutic methods” (RUTGERS, THE STATE UNIVERSITY OF NEW JERSEY, priority 2019, dated 2025).

What was measured:
mutant p53-R175H protein = molecular target: T1, mutant p53-R175H protein (Homo sapiens, UniProt P04637, R175H); test: Mutant p53 refolding assay (immunofluorescent staining with PAB1620 and PAB240); type: cell-based; conditions: p53-R175H cells (e.g. TOV 112D), treated 6 hours; data not shown
T1 construct: endogenous in cells; host or cells: TOV 112D (p53-R175H cells)
Experimental: An immunofluorescent staining using p53 conformation specific antibodies was used to determine if a test compound could induce the mutant p53 protein refolding to a wildtype conformation. The p53-R175H cells (e.g. TOV 112D) cultured in DMEM+10% FBS were treated with a test compound for 6 hours, then fixed and stained with the antibodies PAB1620 (recognizing WT conformation) and PAB240 (recognizing misfolded/unfolded conformation) respectively.

[1] = Colonogenic assay for long term cell killing; type: cell-based; conditions: ZN-6 at 10 nM; exposure up to 60 minutes, washout, crystal violet staining after 14-day incubation
Experimental: Cell growth inhibition for 3 days is an effect for a short term treatment. A colonogenic assay was used for the long term cell killing effect. One thousand cells were seeded in each well in 6-well plates. On the second day the cells were exposed with the dilutions of the compound for up to 60 minutes. After that the compound was washed away and the cells were refed with fresh medium without the compound. The colonies were visualized by crystal violet staining after 14-day incubation.

[2] = Solubility of zinc complexes; type: physicochemical
[3] = test system: human tumor cell lines with different p53 status; test: Cell growth inhibition assay (Calcein AM); type: cell-based; conditions: for EC50: cell growth, Calcein AM, incubation for 3 days, cell line not stated; for Fold (ZN-1/compound) / Fold (compound/ZN-1): ratio of EC50s
Experimental: Cell growth inhibition assay using human tumor cell lines with different p53 status (wildtype, null, p53-R175H or other zinc binding deficient mutants) were employed to determine if a test compound functions as a zinc metallochaperone to restore wildtype p53 functions. The cell growth inhibition assay was performed by Calcein AM assay (Trevigen). Five thousand cells per well were cultured in 96-well plate to reach the 50% confluence on the second day when treated with serial dilutions of the compounds. Growth was measured by Calcein AM assay (Trevigen) and Victor Plate reader instrument (PerkinElmer) after incubation for 3 days.

[4] = test system: p53 target genes PUMA and GDF15 in p53-R175H cells; test: Mutant p53 transcriptional reactivation assay by qRT-PCR of p53 target genes; type: cell-based
Experimental: p53 is a transcription factor. The reactivation of mutant p53 can be detected by regulation of the p53 target genes using quantitative reverse transcription PCR (qRT-PCR). The p53-R175H cells were treated with the compound for 6 hours and 24 hours followed by qRT-PCR to analyze the gene expression regulation. The two p53 target genes in this assay were PUMA and GDF15. For ZN-6, the expression levels were induced for 18-fold and 53-fold respectively (in parental cells). To double check the p53 dependence of the effect, the same assay applied to the p53 knockout cell line (KO, done by CRISPR-cas9 technology) and the p53 transient knockdown cells (KD, using siRNA knockdown). The PUMA induction was only 2× and 5× and GDF15 induction was only 1× and 5× in KO and KD cells, respectively (See FIG. 1).

[5] = p53 knockout cell line (KO, CRISPR-cas9)
[6] = p53 transient knockdown cells (KD, siRNA)
[7] = parental p53-R175H cells, 6 hours and 24 hours treatment

Compound: C/C(=N\NC(=S)N1CCC1)c1ccccn1 [ZMC1, reference compound]
- Refolding of mutant p53 to wildtype conformation (mutant p53-R175H protein): change the mutant p53-R175H protein from mutant conformation to WT conformation
- Earliest exposure time that showed effect on colony formation [1]: 15 min

Compound: COCCOCc1cccnc1/C(C)=N/NC(=S)N(C)C.COCCOCc1cccnc1/C(C)=N/NC(=S)N(C)C.[Zn] [ZN-6, Zn[(E)-2-(1-(3-((2-methoxyethoxy)methyl)pyridin-2-yl)ethylidene)-N,N-dimethylhydrazine-1-carbothioamide]2]
- Solubility in 5% EtOH, 4% Tween80, 4% Kolliphor, 87% water ([2]; 5% EtOH, 4% Tween80, 4% Kolliphor, 87% water): 1000 µg/mL
- Solubility in 10% EtOH, 10% captisol, 80% water ([2]; 10% EtOH, 10% captisol, 80% water): 1000 µg/mL
- Solubility in 50% EtOH 50% H2O ([2]; 50% EtOH, 50% H2O): >5000 µg/mL
- Solubility in DMSO [2]: >10000 µg/mL
- Solubility in EtOH [2]: >10000 µg/mL
- EC50 [3]: 5.41 nM
- Fold (ZN-1/compound) [3]: 0.5
- Fold (compound/ZN-1) [3]: 2.0
- Refolding of mutant p53 to wildtype conformation (mutant p53-R175H protein): change the mutant p53-R175H protein from mutant conformation to WT conformation
- GDF15 induction [4, 5]: 1 ×
- PUMA induction [4, 5]: 2 ×
- GDF15 induction [4, 6]: 5 ×
- PUMA induction [4, 6]: 5 ×
- GDF15 expression induction [4, 7]: 53 fold
- PUMA expression induction [4, 7]: 18 fold
- Earliest exposure time that showed effect on colony formation [1]: 15 min

Compound: C/C(=N\NC(=S)N(C)C)c1ncccc1CN1CCOCC1.C/C(=N\NC(=S)N(C)C)c1ncccc1CN1CCOCC1.[Zn] [ZN-7, Zn[(E)-N,N-dimethyl-2-(1-(3-(morpholinomethyl)pyridin-2-yl)ethylidene)hydrazine-1-carbothioamide]2]
- Solubility in DMSO [2]: >5000 µg/mL
- Solubility in EtOH [2]: 1000 to 2000 µg/mL
- EC50 [3]: 8.36 nM
- Fold (ZN-1/compound) [3]: 0.3
- Fold (compound/ZN-1) [3]: 3.1

Compound: COCCOCc1ccnc(/C(C)=N/NC(=S)N(C)C)c1.COCCOCc1ccnc(/C(C)=N/NC(=S)N(C)C)c1.[Zn] [ZN-12, Zn[(E)-2-(1-(4-((2-methoxyethoxy)methyl)pyridin-2-yl)ethylidene)-N,N-dimethylhydrazine-1-carbothioamide]2]
- EC50 [3]: 2.52 nM
- Fold (ZN-1/compound) [3]: 1.1
- Fold (compound/ZN-1) [3]: 0.9
